The values below are quoted from earlier work in patent EP0640130B1, “CHIMERIC M[…] ANALOGUES AND METHODS OF USE THEREOF” (CREATIVE BIOMOLECULES, INC., priority 1992, dated 1993).

For the data set, the target named is 26-10 sFv (anti-digoxin single-chain Fv).

With `C[C@@H]1O[C@@H](O[C@H]2C[C@@H](O)[C@]3(CO)[C@H]4[C@H](O)C[C@]5(C)[C@@H](C6=CC(=O)OC6)CC[C@]5(O)[C@@H]4CC[C@]3(O)C2)[C@H](O)[C@H](O)[C@H]1O` [Ouabain], the “Ka for association with 26-10 sFv” value is listed as “about 10^7 M^-1”.
